Measured values as given in US8030493B2, “Monovalent and divalent salts of N-(5-hydroxynicotinoil) -L-glutamic acid exhibiting psychotropic (antidepressant and anxiolytic), neuroprotective, geroprotective and cerebroprotective action” (Obschestvo S Ogranichennoy Otvetstvennostyu “Natsionalnaya …, priority 2006, dated 2011).
Marks after values point to notes of the source that are not given here.

Columns and labels:
[1] = tested on: rats with hemorrhagic stroke; assay: Intracerebral posttraumatic hematoma (hemorrhagic stroke): survival; format: in vivo; conditions: 20 mg/kg single dose intraperitoneally 3-3.5 hours after surgery
Description: (§1) White nondescript male rats with body weight 200-250 g, which lived in vivarium and had feed (standard palletized feed) and water ad libitum, with natural alternation of day and night, were used in the experiments. Hemorrhagic stroke (local cerebral hemorrhage) was simulated according to method by A. N. Makarenko et al. (Method of local hemorrhage simulation I various structures of the brain in experimental animals. Journal Visshei Nervnoy Deyatelnosti—Journal of Higher Nervous Activities, 2002, v. 52, No 6, p. 765-768). In nembutal-anesthetized rats (40 mg/kg, i.m.) destruction of the brain tissue in capsule interna area was made with the use of special device (mandarin-knife) followed by application of blood (0.02-0.03 ml) taken from under the rat's tongue to the damaged area (within 2-3 minutes). False-operated animals underwent scalping and craniotomy. The animals were divided into 5 groups: intact rats, false-operated rats, animals with hemorrhagic stroke received nooglutyl at 20 mg/kg, and animals with hemorrhagic stroke received Compound I at 20 mg/kg. Effects were recorded within 24 hours and 14 days after the surgery. Learning ability and memory of the rats was examined in the model of passive avoidance response (PAR, Passive Avoidance supplied by Lafayette Instrument Co., USA). To determine neurological deficit in the animals Stroke-index McGrow scale modified by I. V. Gannushkina (Functional architectonics of the brain, Moscow, Medicina, 1977, 224 p.) was used. The severity of the condition was determined by the sum of the points. The number of rats with mild symptoms up to 2.5 points of Stroke-index scale (apathy, weakness of the extremities, unilateral semiptosis, tremor, circus movements) and severe manifestations of neurological disorders (3 to 10 points)—paresis of the extremities, palsy of low extremities, lateral position. The animals received single dose of nooglutyl and Compound I at the same dose 20 mg/kg intraperitoneally within 3-3.5 hours after the surgery. Controlled animals were treated with saline. At onset of the experiment each group comprised 15-20 animals. Mortality of the rats was recorded throughout the observation period (14 days). Statistical analysis was made using parametrical and non-parametrical methods and Biostat software. Nimodipin administered at 01.mg/kg according to above scheme was considered as a standard.

[2] = tested on: rats with hemorrhagic stroke; assay: Hemorrhagic stroke: reproduction of passive avoidance response; format: in vivo; conditions: 20 mg/kg; for Increase of the share of rats with HS that retained the memory trace: PAR reproduction on Day 14, versus 8% of untreated rats with stroke
Description: as §1

in vivo = conditions: male, white nondescript (outbred), mouse, ip
Procedure: The study of acute daily toxicity of Compound I was carried out on white nondescript male mice with body weight 25-28 g, which lived in habitual conditions in vivarium and received feed and water ad libitum. Single dose of Compound I was administered intraperitoneally. The animals were under observation for 2 days after the dosing. The dose levels of Compound I used in the toxicity study were as follows: 800 mg/kg, 1000 mg/kg, 1200 mg/kg, 1500 mg/kg, 1600 mg/kg. Compound I was dissolved in distilled water and administered in 0, 1 ml per 10 g of the body weight of the animal when the doses 800 mg/kg and 1000 mg/kg, and in 0.2 ml per 10 g of the body weight when the doses 1200 mg/kg, 1500 mg/kg, 1600 mg/kg were used. Control animals received distilled water in the volume 0.2 ml per 10 g of the body weight.
Each dose group comprised 10 animals.

[3] = tested on: mice exposed to hypoxia in hermovolume; assay: Hypoxia with hypercapnia in hermovolume; format: in vivo
Procedure: (§2) White nondescript male mice with body weight 22-28 g were used in the experiments. Each dose level was studied in 10 animals. Control animals received equivalent volume of distilled water. Nooglutyl was used as reference agent. Study compounds were administered intraperitoneally 40 minutes before the experiment.
(§3) Acute hypobaric hypoxia was simulated in flow-exhaust chamber. Pressure was measured with altimeter, and elevation speed with variometer. The animals were “elevated” at the speed 20 m/s to the stage at 11000 m. The exposure lasted 10 minutes. Then the animals were mover down to the baseline level for 5 minutes. Hypoxia with hypercapnia in hermovolume was created by placement of the animal into 200 ml hermetically sealed glass vessels. Life period of the animals under hypoxic conditions was recorded. Each group comprised 10 animals.

rats with amnesia = assay: Antiamnestic activity: passive avoidance response (PAR) with amnesia by maximum electric shock; format: in vivo; conditions: for Time of presence of animals while PAR reproduction (seconds) in the dark chamber / Time of presence of animals while PAR reproduction (seconds) on the illuminated platform: rats with electric shock amnesia, 24 hours after learning; for Dose level with statistically significant antiamnestic effect of the same intensity: PAR, electric shock amnesia, intraperitoneally
Procedure: White nondescript male rats with body weight 250-280 g were used in the experiments. Each dose level was studied in 10 animals. Control animals received equivalent volume of distilled water. Nooglutyl was used as reference agent. Study compounds were administered intraperitoneally 40 minutes before the experiment. Experiment was carried out on the standard automated unit for passive avoidance response (Passive Avoidance) supplied by Lafayette Instrument Co., (USA) (Ader et al. Retention of a passive avoidance response as a function of the intensity and duration of electric shock. Psycho Sci. 1972, v. 26, p. 125-128; Voronina T. A. et al. “Textbook for Experimental (Preclinical Study) of novel pharmacological compounds”. Moscow, Medicina. 2005, p. 253-263 and 308-320). The unit was designed as small platform situated 1 m above the floor, which was illuminated with special lamp, and dark chamber with electrode floor connected with the platform. The rat was placed on illuminated platform in front of the entry to the dark chamber with its tail directed to the entry; the animal preferred dark chamber and quickly ran into it. In the dark chamber the animal received single pain stimulus with electric current (0.45 mA) and memorized that it was dangerous to enter dark chamber. Duration of the stimulus was determined from the running out of the animal from the dark chamber. To achieve amnesia maximum electric shock was used (50 Hz, 0.2 sec), which was made through corneal electrodes immediately after learning. Electric shock caused obliteration of the memory trace. Test for reproduction of passive avoidance response (PAR) (for retention of memory trace) was performed 24 hours after learning session and electric shock. The animal was placed on illuminated platform once again, and time of the presence on illuminated platform and dangerous dark chamber (no current was conducted to the floor during reproduction of PAR).
Control trained animals with reproduction of PAR without electric shock preferred to stay on illuminated platform. Obliteration of training with electric shock causes amnesia in the animals; as a result, the animals with short latent period enter dark chamber and stay there considerably longer than animals without amnesia (Table 2).

[4] = tested on: mice exposed to hypobaric hypoxia; assay: Acute hypobaric hypoxia in flow-exhaust chamber; format: in vivo
Procedure: as §2, §3

[5] = PAR reproduction within 24 hours
[6] = PAR reproduction within 14 days
[7] = 30 mg/kg intraperitoneally 40 minutes before the experiment
[8] = 60 mg/kg intraperitoneally 40 minutes before the experiment
[9] = 120 mg/kg intraperitoneally 40 minutes before the experiment

| SMILES | Number of animals which died in relation to total number of operated animals, absolute, Day 1 after surgery [1] | Number of animals which died in relation to total number of operated animals, absolute, Day 3 after surgery [1] | Number of animals which died in relation to total number of operated animals, absolute, Day 7 after surgery [1] | Number of animals which died in relation to total number of operated animals, absolute, Day 14 after surgery [1] | Number of animals which died, %, Day 1 after surgery [1] | Number of animals which died, %, Day 3 after surgery [1] | Number of animals which died, %, Day 7 after surgery [1] | Number of animals which died, %, Day 14 after surgery [1] | Increase of the share of rats with HS that retained the memory trace [2] | Latent period of entry to dark chamber (c) [2, 5] | Number of animals, which did not enter dark chamber (%) [2, 5] | Latent period of entry to dark chamber (c) [2, 6] | Number of animals, which did not enter dark chamber (%) [2, 6] | LD50 at 2 days (in vivo) | Life interval of mice (minutes) exposed to hypoxia in hermovolume [3, 7] | Life interval of mice (minutes) exposed to hypoxia in hermovolume [3, 8] | Life interval of mice (minutes) exposed to hypoxia in hermovolume [3, 9] | Time of presence of animals while PAR reproduction (seconds) in the dark chamber (rats with amnesia; 25 mg/kg intraperitoneally) | Time of presence of animals while PAR reproduction (seconds) on the illuminated platform (rats with amnesia; 25 mg/kg intraperitoneally) | Time of presence of animals while PAR reproduction (seconds) in the dark chamber (rats with amnesia; 50 mg/kg intraperitoneally) | also measured |
| --- | --- | --- | --- | --- | --- | --- | --- | --- | --- | --- | --- | --- | --- | --- | --- | --- | --- | --- | --- | --- | --- |
| O=C([O-])CC[C@H](NC(=O)c1cncc(O)c1)C(=O)[O-].[Ca+2] [Compound I, Calcium N-(5-hydroxynicotinoyl)-L-glutamate] | 1 of 20 | 2 of 20 | 2 of 20 | 2 of 20 | 5% | 10## % | 10## % | 10% | 6.5 fold | 128.1 ± 17.6 c | 63% | 98.9 ± 21.3 c | 52$$ % | 1150 mg/kg | 16.2 ± 0.31 min | 17.8 ± 0.41 min | 18.1 ± 0.48 min | 64.2 ± 6.4 s | 55.8 ± 9.3 s | 40.6 ± 8.3 s | Number of animals which died, %, Day 14 after surgery ([1]; listed as compound I): 10## %; Time of presence of animals while PAR reproduction (seconds) on the illuminated platform (rats with amnesia; 50 mg/kg intraperitoneally): 79.4 ± 12.8 s; Dose level with statistically significant antiamnestic effect of the same intensity (rats with amnesia): 25 mg/kg; Life interval of mice (minutes) exposed to hypobaric hypoxia [4, 7]: 6.51 ± 0.82 min; Life interval of mice (minutes) exposed to hypobaric hypoxia [4, 8]: 9.17 ± 0.91 min |
| O=C(O)CC[C@H](NC(=O)c1cncc(O)c1)C(=O)O [Nooglutyl, N-(5-hydroxynicotinoyl)-L-glutamic acid, reference compound] | 3 of 20 | 4 of 20 | 4 of 20 | 4 of 20 | 15% | 20# % | 20# % | 20% | 5 fold | 130.4 ± 20.1 c | 64% | 92.2 ± 18.2 c | 40$ % | 1200 mg/kg | 13.9 ± 0.42 min | 15.2 ± 0.39 min | 16.4 ± 0.53 min | 73.3 ± 13.4 s | 46.7 ± 13.4 s | 65.7 ± 7.1 s | Number of animals which died, %, Day 14 after surgery ([1]; listed as nooglutyl): 20## %; Time of presence of animals while PAR reproduction (seconds) on the illuminated platform (rats with amnesia; 50 mg/kg intraperitoneally): 54.3 ± 10.2 s; Dose level with statistically significant antiamnestic effect of the same intensity (rats with amnesia): 50 mg/kg; Life interval of mice (minutes) exposed to hypobaric hypoxia [4, 7]: 4.1 ± 0.77 min; Life interval of mice (minutes) exposed to hypobaric hypoxia [4, 8]: 7.68 ± 0.54 min |
